Experimental findings from patent publication US6818407B2, “Anti-endotoxic antimicrobial cationic peptides and methods of use therfor” (priority 1998, dated 2004) are described below.

Marks after values point to notes of the source that are not given here.

One test concerns S. epidermis. The test can be described thus: MIC, broth microdilution assay in polypropylene microtiter trays. It counts as cell-based. As to conditions: average of three separate experiments. The gist of the method: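 MIC values record the lowest peptide concentration at which turbidity (OD) remained unchanged throughout the assigned period.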
The subject of test [1] is RAW 264.7. The test can be described thus: Inhibition of LPS-induced TNF production by RAW 264.7 macrophage cell line. As to conditions: E. coli LPS 100 ng/ml, peptide 20 μg/ml, 6 hr; FIG. 2. It is filed as cell-based, murine. As for the experimental part: (§1) LPS (endotoxin) binding was examined by the dansyl polymyxin binding assay. All peptides bound to LPS (FIG. 1). The anti-endotoxic activity of the peptides was tested in the murine cell line RAW 264.7 which was obtained from the ATCC (ATCC #TIB-71), (Rockville, Md.). TNF induction experiments with LPS were performed as described by Kelly et al (Infect. Immun., 59:4491-6, 1991). Briefly, Dulbecco's modified Eagle medium was aspirated from RAW 264.7 cells grown overnight in 24-well tissue culture plates after seeding with 10^6 cells per ml per well and replaced with fresh medium. LPS at a final concentration of 100 ng/ml, was incubated with the cells for 6 hr. at 37° C. in 5% CO2 prior to assaying for cytokine production. At the same time as LPS addition, cationic peptides were added at a final concentration of 20 μg/ml. All assays were performed three times with similar results.
(§2) TNF was measured in cell culture supernatants and mouse serum on the basis of cytoxicity for L929 fibroblast cells. […] TNF activity was expressed in units as the reciprocal of the dilution of TNF that caused 50% cytotoxicity of L929 cells, as computed using the ELISA+program (Meddata Inc, New York, N.Y.). For the current study, one unit of TNF corresponded to 62.5 pg/ml of recombinant murine TNF (Genzyme Corp.) IL-6 production was measured by ELISA with specific antibody.

Test [2] is described as follows: Lethal endotoxemia in galactosamine-sensitized mice. As to conditions: peptide 200 μg intraperitoneal within 10 min of 10 μg LPS; 24 hours post injection; 5 mice per group; no peptide 100. It is filed as in vivo, CD-1 mice. As to the method:
To confirm this in vivo, endotoxic shock was induced by intraperitoneal injection of 10 μg of E.coli 0111:B4 LPS in phosphate-buffered saline (PBS; pH 7.2) into galactosamine-sensitized 8- to 10- week old female CD-1 mice (5 per group). In experiments involving peptides, 200 μg in 100 μl of sterile water was injected at separate intraperitoneal sites within 10 min of LPS injection. Survival was monitored at 24 hours post injection.

The test system of test [3] is P. aeruginosa efflux mutant (Nal B, H744). The test can be described thus: microbe, parasite or virus in culture. It is filed as cell-based.
Test [4] deals with P. aeruginosa gyrase mutant (Nal A, H374). It is filed as cell-based. As to the method:
The biological activity of the peptides can be determined by standard methods known to those of skill in the art, such as Aminimal inhibitory concentration (MIC)≅ assay described in the present examples, whereby the lowest concentration at which no change in OD is observed for a given period of time is recorded as MIC. Alternatively, Afractional inhibitory concentration (FIC)≅ is also useful for determination of synergy between the peptides of the invention, or the peptides in combination with known antibiotics. FICs are performed by checkerboard titrations of peptides in one dimension of a microtiter plate, and of antibiotics in the other dimension, for example. The FIC is calculated by looking at the impact of one antibiotic on the MIC of the other and vice versa. […] Preferably, an FIC of less than 0.5 is obtained for synergism. As used herein, FIC can be determined as follows: [formula]
To test whether the peptides of the invention synergize with various antibiotics, the following method was employed. Fractional Inhibitory Concentration (FIC) was used to determine synergy of peptides combined with antibiotics (e.g., carbenicillin/ciprofloxacin) against Pseudomonas aeruginosa. The following methodology was followed:
(1) Determination of MIC of cationic peptides (MIC A):
100 μl Mueller Hinton broth (MHB) was added per well
12.5 μl of 10× test concentration peptide was added per well to get final peptide concentration of e.g., 128, 64, 32, . . . 0.025 μg/ml from row 1 to 11;
10 μl of 10^−4 dilution of overnight bacterial culture was added per well.
(2) Determination of MIC of Carbenicillin/Ciprofloxacin (MIC B):
100 μl MHB was added per well;
100 μl of 2× test concentration of antibiotic was added in the first well of the row, and doubling dilutions performed across the plate from column 1 to 11;
(3) Determination of MIC of antibiotics (B) when combined with peptides at concentration A:
100 μl Carbenicillin (512 μg/ml) or Ciprofloxacin (8 μg/ml) was added in each well of column 1; doubling dilutions were performed across the plate;
100 μl of the peptide was added in all wells of row 1, mixed, and 100 μl withdrawn and added to row 2, etc., creating a checkerboard titration.
10 μl of 10^−4 dilution of overnight culture was added per well;
plates were incubated at 37EC for 18-24 hours. Combination MIC values A and B were taken as the lowest concentration of drug that reduced bacterial growth by more than 50% in any given column.
(4) FIC index=FICA+FICB=(A)/MIC A+(B)/MIC B. An FIC index of approximately 0.5 or less indicates synergy; 1.0 reflects additivity; and >1.0 indicates antagonism.

Test [5] concerns RAW 264.7. The test can be described thus: Suppression of LPS-induced IL-6 production by RAW 264.7 macrophage cell line. The note with it: LPS 100 ng/ml, peptide 20 μg/ml, 6 hr, ELISA, FIG. 3. It counts as cell-based, murine. As for the experimental part: as §1, §2
Test [6] relates to Pseudomonas aeruginosa PAO. The test can be described thus: Chronic Pseudomonas aeruginosa lung infection in rats, aerosol treatment. It counts as in vivo. The note with it: lungs, quantitative culture; aerosol 10 ml of 5 mg/ml once daily for three days; untreated control 1.2 × 10^6. As to the method: Fifteen animals were utilized in these experiments (5 animals in each of three groups). All animals were inoculated intratracheal with 10^4 Pseudomonas aeruginosa PAO in agar beads. Three days following inoculation, rats were exposed to aerosol preparations from and Aero-Tech II nebulizer (CIS-US, Bedford, Mass.). The nebulizer was operated at 45 psi, with a flow rate of 10 L/min and contained 10 ml of the preparation to be aerosolized. The 10 ml volume was dispensed in 25-30 minutes. Animals were treated once daily for three days; control animals received daily exposure to 10 mls of 10 mM sodium citrate (pH 7.0); one treatment group received daily exposure to 10 mls of 10 mM sodium citrate (pH 7.0) containing 5 mg/ml of CM3; one treatment group received daily exposure to 10 mls of 10 mM sodium citrate (pH 7.0) containing 5 mg/ml of Cpα2. Animals were sacrificed on day 3, at one hour following the last exposure. The lungs of the treatment and control animals were removed for quantitative culture.

For the compound `CC[C@H](C)[C@H](NC(=O)CNC(=O)[C@@H](NC(=O)[C@H](CCCCN)NC(=O)[C@H](CCCCN)NC(=O)[C@H](Cc1ccccc1)NC(=O)[C@H](CC(C)C)NC(=O)[C@H](CCCCN)NC(=O)[C@H](Cc1c[nH]c2ccccc12)NC(=O)[C@@H](N)CCCCN)[C@@H](C)CC)C(=O)NCC(=O)N[C@@H](C)C(=O)N[C@H](C(=O)N[C@@H](CC(C)C)C(=O)N[C@@H](CCCCN)C(=O)N[C@H](C(=O)N[C@@H](CC(C)C)C(=O)N[C@@H](CCCCN)C(=O)N[C@H](C(=O)N[C@@H](CC(C)C)C(=O)N[C@H](C(=O)N[C@H](C(=O)NCC(=O)N[C@@H](CC(C)C)C(=O)N1CCC[C@H]1C(=O)N[C@@H](C)C(=O)N[C@@H](CC(C)C)C(=O)N[C@@H](CCCCN)C(=O)N[C@@H](CC(C)C)C(=O)N[C@H](C(=O)N[C@@H](CC(C)C)C(=O)N[C@@H](CCCCN)C(=O)O)[C@@H](C)O)[C@@H](C)O)[C@@H](C)O)C(C)C)C(C)C)C(C)C` [CM4], the “MIC S. epidermis” value in the test on S. epidermis was 4 µg/mL. Besides, the “Inhibition of TNF production (neutralization of endotoxin)” value in the test with RAW 264.7 [1] is “clearly better than others”. Besides, the “Mortality (%)” value in test [2] turned out to be 80%.
Take `CC[C@H](C)[C@H](NC(=O)CNC(=O)[C@@H](NC(=O)[C@H](CCCCN)NC(=O)[C@H](CCCCN)NC(=O)[C@@H](NC(=O)[C@H](Cc1ccccc1)NC(=O)[C@H](CCCCN)NC(=O)[C@H](CCCCN)NC(=O)[C@H](Cc1c[nH]c2ccccc12)NC(=O)[C@@H](N)CCCCN)[C@@H](C)CC)[C@@H](C)CC)C(=O)NCC(=O)N[C@@H](C)C(=O)N[C@H](C(=O)N[C@@H](CC(C)C)C(=O)N[C@@H](CCCCN)C(=O)N[C@H](C(=O)N[C@@H](CC(C)C)C(=O)N[C@H](C(=O)N[C@H](C(=O)NCC(=O)N[C@@H](CC(C)C)C(=O)N1CCC[C@H]1C(=O)N[C@@H](C)C(=O)N[C@@H](CC(C)C)C(=O)N[C@@H](CCCCN)C(=O)N[C@@H](CC(C)C)C(=O)N[C@H](C(=O)N[C@@H](CCCCN)C(=O)N[C@@H](CCCCN)C(=O)O)[C@@H](C)O)[C@@H](C)O)[C@@H](C)O)C(C)C)C(C)C` [CPα2]: the “(B) MIC of Nal when combined with peptide” value came out at 800 µg/mL in test [3] (nalidixic acid with peptide at concentration (A), efflux mutant Nal B, H744, unit from method) and 800 µg/mL in test [4] (nalidixic acid with peptide at concentration (A), Nal A, unit from method). For the same compound, the FIC index stood at 0.63 in test [3] (peptide + nalidixic acid, efflux mutant Nal B, H744) and 0.50 in test [4] (peptide + nalidixic acid, Nal A). Also, the “MIC A MIC of Peptides” value in test [3] (peptide alone, P. aeruginosa efflux mutant Nal B, H744 (Table 6)) stood at 4 µg/mL; in test [4] (peptide alone, P. aeruginosa gyrase mutant Nal A), 4 µg/mL. Also, the “(A) Peptide doses together with Nal” value in test [3] (peptide concentration in combination with nalidixic acid, efflux mutant Nal B, H744) worked out at 0.5 µg/mL; in test [4] (peptide concentration in combination with nalidixic acid, Nal A), 1 µg/mL. Moreover, the “Inhibition of TNF production (neutralization of endotoxin)” value with RAW 264.7 [1] is reported as “clearly better than others”. The “Suppression of IL-6 production” value is on record as “clearly superior in their ability to suppress IL-6 production” with RAW 264.7 [5] and “superior in their ability to suppress IL-6 production” in the test with RAW 264.7 [5] (listed as Cpα2). The “Mean Colony Forming Units +/− S.D.” value in test [6] is listed as 6.8 × 10^4 +/− 3.6 × 10^4* CFU.
As to `CC[C@H](C)[C@H](NC(=O)CNC(=O)[C@@H](NC(=O)[C@H](CCCCN)NC(=O)[C@H](CCCCN)NC(=O)[C@H](Cc1ccccc1)NC(=O)[C@H](CC(C)C)NC(=O)[C@H](CCCCN)NC(=O)[C@H](Cc1c[nH]c2ccccc12)NC(=O)[C@H](CC(C)C)NC(=O)[C@@H](N)CCCCN)[C@@H](C)CC)C(=O)NCC(=O)N[C@@H](C)C(=O)N[C@H](C(=O)N[C@@H](CC(C)C)C(=O)N[C@@H](CCCCN)C(=O)N[C@H](C(=O)N[C@@H](CC(C)C)C(=O)N[C@@H](CCCCN)C(=O)N[C@H](C(=O)N[C@@H](CC(C)C)C(=O)N[C@H](C(=O)N[C@H](C(=O)NCC(=O)N[C@@H](CC(C)C)C(=O)N1CCC[C@H]1C(=O)N[C@@H](C)C(=O)N[C@@H](CC(C)C)C(=O)N[C@@H](CCCCN)C(=O)N[C@@H](CC(C)C)C(=O)N[C@H](C(=O)N[C@@H](CC(C)C)C(=O)N[C@@H](CCCCN)C(=O)O)[C@@H](C)O)[C@@H](C)O)[C@@H](C)O)C(C)C)C(C)C)C(C)C` [CM7], the “MIC S. epidermis” value in the test on S. epidermis is 4 µg/mL. Further, the “Suppression of IL-6 production” value in the test with RAW 264.7 [5] is “clearly superior in their ability to suppress IL-6 production”. In addition, the “Mortality (%)” value in test [2] is listed as 100%.
